# Source: patent US20160355530A1, “HEPATITIS C INHIBITORS AND USES THEREOF” (AbbVie Inc., priority 2010, published 2016)
# Read-outs that look alike come from different tables or passages of the source.
# Key:
# [1] = system: chimeric replicon with 2a-J6CF-derived NS5B; test: microbe, parasite or virus in culture; assay type: cell-based, HCV genotype 2a; details: Hepatitis C virus, read-out: 2a chimera 5% FBS EC50
# [2] = system: HCV 1a-H77 transient subgenomic replicon in Huh-7 derived cell line; test: microbe, parasite or virus in culture; assay type: cell-based, HCV genotype 1a; details: Hepatitis C virus, Huh-7; transient replicon, 5% FBS; read-out: Transient Replicon 1a H77 5% FBS EC50
# In short: (§1)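 Subgenomic replicon RNA (no Neo gene) electroporated into Huh-7-derived cells, plated at 5×10^3 cells/well; a 4 h plate gauged transfection efficiency. Cells exposed to 3-fold compound dilutions (0.5% DMSO) for 4 days at 37° C, then lysed for luciferase readout; EC50 calculated.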
# [3] = system: HCV 1a-H77-C316Y transient subgenomic replicon in Huh-7 derived cell line; test: microbe, parasite or virus in culture; assay type: cell-based, HCV genotype 1a; details: for EC50: Hepatitis C virus, Huh-7, read-out: Transient Replicon 1a H77-C316Y 5% FBS EC50; for Transient Replicon Fold Resistance C316Y/1a: ratio of transient replicon EC50s, C316Y / 1a H77
# In short: as §1
# [4] = system: HCV 1a-H77 subgenomic replicon; test: microbe, parasite or virus in culture; assay type: cell-based, HCV genotype 1a; details: Hepatitis C virus, stable replicon
# [5] = system: chimeric replicon with genotype 4a NS5B; test: microbe, parasite or virus in culture; assay type: cell-based, HCV genotype 4a; details: Hepatitis C virus, read-out: 4a chimera 5% FBS EC50
# [6] = target: T1, HCV NS5B polymerase 1b BK strain (Hepatitis C virus genotype 1b, UniProt P26663); test: HCV NS5B polymerase enzymatic inhibition assay, strain 1b BK; assay type: biochemical; details: enzyme, strain 1b BK; read-out: HCV Polymerase Strain 1b BK IC50
# T1 construct: six-histidine tag; made in house; host or cells: E. coli
# In short: (§2)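 Recombinant NS5B (residues 1–570, His-tagged, E. coli-expressed) copied 5 nM of a 2.1 kb HCV 1b negative-strand 3′-end RNA template with 20 μM CTP, 20 μM ATP and 0.284 μM [3H]UTP for 3 h at 30 °C. Spermine-precipitated RNA was filter-captured and counted, and IC50 was fitted by nonlinear regression.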
# [7] = system: HCV 1b-BB7 subgenomic replicon; test: microbe, parasite or virus in culture; assay type: cell-based, HCV genotype 1b; details: Hepatitis C virus, stable replicon
# [8] = system: chimeric replicon with genotype 2b NS5B; test: microbe, parasite or virus in culture; assay type: cell-based, HCV genotype 2b; details: Hepatitis C virus, read-out: 2b chimera 5% FBS EC50
# [9] = target: T2, HCV NS5B polymerase 1a-H77-C316Y (Hepatitis C virus genotype 1a, UniProt P27958, C2736Y); test: biochemical; parameters: species or system HCV genotype 1a
# T2 construct: six-histidine tag; made in house; host or cells: E. coli
# In short: as §2
# [10] = target: T3, HCV NS5B polymerase 1a-H77 (Hepatitis C virus genotype 1a, UniProt P27958); test: biochemical; parameters: species or system HCV genotype 1a; details: enzyme, strain 1a H77; read-out: HCV Polymerase Strain 1a H77 IC50
# T3 construct: six-histidine tag; made in house; host or cells: E. coli
# In short: as §2
# [11] = system: HCV NS5B polymerase 1a-H77-C316Y; test: biochemical; parameters: species or system HCV genotype 1a; details: ratio of enzyme IC50s, 1a H77-C316Y / 1a H77
# In short: as §2
# [12] = system: chimeric replicon with genotype 3a NS5B; test: microbe, parasite or virus in culture; assay type: cell-based, HCV genotype 3a; details: Hepatitis C virus, read-out: 3a chimera 5% FBS EC50
# [13] = 5% FBS, absence of human plasma, read-out: Stable Replicon 1a H77 5% FBS EC50
# [14] = strain 1a H77, 5% FBS + 40% human plasma, read-out: 1a H77 5% FBS + 40% Human Plasma EC50
# [15] = strain 1a H77, 5% FBS, no human plasma, read-out: 1a H77 5% FBS EC50
# [16] = strain 1a H77, 5% FBS, read-out: 1a H77 5% FBS EC50
# [17] = strain 1b BB7, 5% FBS + 40% human plasma, read-out: 1b BB7 5% FBS + 40% Human Plasma EC50
# [18] = strain 1b BB7, 5% FBS, no human plasma, read-out: 1b BB7 5% FBS EC50
# [19] = strain 1b BB7, 5% FBS, read-out: 1b BB7 5% FBS EC50
# T1 sequence (P26663 2420-2989): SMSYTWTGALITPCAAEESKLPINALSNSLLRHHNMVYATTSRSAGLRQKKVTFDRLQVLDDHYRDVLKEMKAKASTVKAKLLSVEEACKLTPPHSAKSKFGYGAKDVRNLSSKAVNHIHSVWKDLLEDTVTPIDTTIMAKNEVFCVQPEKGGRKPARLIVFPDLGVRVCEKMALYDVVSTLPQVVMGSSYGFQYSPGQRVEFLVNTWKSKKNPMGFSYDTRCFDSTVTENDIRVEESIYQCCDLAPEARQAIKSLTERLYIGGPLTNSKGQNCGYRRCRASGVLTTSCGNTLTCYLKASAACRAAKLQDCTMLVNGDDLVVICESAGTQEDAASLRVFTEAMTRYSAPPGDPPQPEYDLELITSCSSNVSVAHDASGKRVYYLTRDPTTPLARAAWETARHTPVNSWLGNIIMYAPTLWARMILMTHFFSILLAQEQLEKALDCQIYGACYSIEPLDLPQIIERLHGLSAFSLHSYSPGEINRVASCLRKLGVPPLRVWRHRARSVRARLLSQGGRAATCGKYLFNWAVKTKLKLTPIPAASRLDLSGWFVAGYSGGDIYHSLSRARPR
# T2 sequence (P27958 2421-2990 C2736Y): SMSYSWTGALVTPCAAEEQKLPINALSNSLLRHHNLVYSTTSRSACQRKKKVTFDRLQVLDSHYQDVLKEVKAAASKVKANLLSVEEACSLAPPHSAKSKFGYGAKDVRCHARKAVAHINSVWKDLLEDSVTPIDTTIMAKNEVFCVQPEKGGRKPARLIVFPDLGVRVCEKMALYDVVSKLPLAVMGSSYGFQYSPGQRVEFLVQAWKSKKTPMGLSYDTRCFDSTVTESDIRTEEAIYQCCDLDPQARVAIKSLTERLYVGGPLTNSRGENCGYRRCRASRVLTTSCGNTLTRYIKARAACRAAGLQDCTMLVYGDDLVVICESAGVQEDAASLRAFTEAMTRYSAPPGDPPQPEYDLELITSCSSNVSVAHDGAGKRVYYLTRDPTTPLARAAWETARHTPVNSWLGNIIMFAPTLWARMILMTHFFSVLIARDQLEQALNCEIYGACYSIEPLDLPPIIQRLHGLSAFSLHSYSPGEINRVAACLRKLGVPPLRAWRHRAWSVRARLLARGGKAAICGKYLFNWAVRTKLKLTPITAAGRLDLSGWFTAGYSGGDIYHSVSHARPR
# T3 sequence (P27958 2421-2990): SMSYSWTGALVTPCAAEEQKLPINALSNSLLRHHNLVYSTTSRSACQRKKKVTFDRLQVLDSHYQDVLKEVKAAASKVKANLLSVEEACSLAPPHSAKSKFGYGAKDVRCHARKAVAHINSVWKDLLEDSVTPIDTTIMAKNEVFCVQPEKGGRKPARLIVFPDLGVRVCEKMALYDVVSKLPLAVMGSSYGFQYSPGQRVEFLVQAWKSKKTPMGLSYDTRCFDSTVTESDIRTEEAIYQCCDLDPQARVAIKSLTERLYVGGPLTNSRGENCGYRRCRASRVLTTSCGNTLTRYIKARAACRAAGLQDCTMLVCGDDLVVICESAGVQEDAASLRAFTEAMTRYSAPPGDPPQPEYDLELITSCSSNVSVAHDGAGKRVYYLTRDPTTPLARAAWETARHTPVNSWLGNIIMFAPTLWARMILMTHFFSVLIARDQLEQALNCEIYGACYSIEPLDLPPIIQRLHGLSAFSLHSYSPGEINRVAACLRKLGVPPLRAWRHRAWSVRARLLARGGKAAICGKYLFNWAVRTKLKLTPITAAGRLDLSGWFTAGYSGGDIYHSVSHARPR
SMILES,EC50 [1],EC50 [2],EC50 [3],Transient Replicon Fold Resistance C316Y/1a [3],"EC50 [4, 13]","EC50 [4, 14]","EC50 [4, 15]","EC50 [4, 16]",EC50 [5],IC50 [6],"EC50 [7, 17]","EC50 [7, 18]","EC50 [7, 19]",EC50 [8],IC50 [9],IC50 [10],C316Y/1a Fold Resistance [11],EC50 [12]
"Cc1ccc(C)n1-c1nc(CCCN(c2cc3oc(-c4ccc(F)cc4)c(-c4ncc[nH]4)c3cc2C2CC2)S(C)(=O)=O)cs1 [Example 62, N-[5-cyclopropyl-2-(4-fluorophenyl)-3-(1H-imidazol-2-yl)-1-benzofuran-6-yl]-N-{3-[2-(2,5-dimethyl-1H-pyrrol-1-yl)-1,3-thiazol-4-yl]propyl}methanesulfonamide]",309 nM,60.6 nM,899 nM,15 fold,88.7 nM,342 nM,88.7 nM,88.7 nM,364 nM,14 nM,328 nM,71 nM,71 nM,471 nM,250 nM,3.9 nM,65 fold,49.9 nM
"CS(=O)(=O)N(CC#N)c1cc2oc(-c3ccc(F)cc3)c(-c3ncc[nH]3)c2cc1C1CC1 [Example 63, N-(cyanomethyl)-N-[5-cyclopropyl-2-(4-fluorophenyl)-3-(1H-imidazol-2-yl)-1-benzofuran-6-yl]methanesulfonamide]",131 nM,75.6 nM,1900 nM,25 fold,67 nM,1160 nM,67 nM,67 nM,702 nM,47 nM,195 nM,14.4 nM,14.4 nM,108 nM,2100 nM,4.5 nM,470 fold,6.8 nM
"CS(=O)(=O)N(CCCO)c1cc2oc(-c3ccc(F)cc3)c(-c3ncc[nH]3)c2cc1C1CC1 [Example 65, N-[5-cyclopropyl-2-(4-fluorophenyl)-3-(1H-imidazol-2-yl)-1-benzofuran-6-yl]-N-(3-hydroxypropyl)methanesulfonamide]",42.4 nM,5.4 nM,228 nM,42 fold,10.3 nM,121 nM,10.3 nM,10.3 nM,87.5 nM,52 nM,59.5 nM,6.8 nM,6.8 nM,68.5 nM,166 nM,6.9 nM,24 fold,4 nM
"CS(=O)(=O)N(CCCS(N)(=O)=O)c1cc2oc(-c3ccc(F)cc3)c(-c3ncc[nH]3)c2cc1C1CC1 [Example 80, 3-{[5-cyclopropyl-2-(4-fluorophenyl)-3-(1H-imidazol-2-yl)-1-benzofuran-6-yl](methylsulfonyl)amino}propane-1-sulfonamide]",211 nM,8.3 nM,162 nM,20 fold,12.1 nM,52 nM,12.1 nM,12.1 nM,373 nM,16 nM,72 nM,10.7 nM,10.7 nM,283 nM,55 nM,5 nM,11 fold,12.2 nM
"CS(=O)(=O)N(CCCCF)c1cc2oc(-c3ccc(F)cc3)c(-c3ncc[nH]3)c2cc1C1CC1 [Example 83, N-[5-cyclopropyl-2-(4-fluorophenyl)-3-(1H-imidazol-2-yl)-1-benzofuran-6-yl]-N-(4-fluorobutyl)methanesulfonamide]",46.7 nM,6 nM,128 nM,21 fold,6.9 nM,89 nM,6.9 nM,6.9 nM,67.3 nM,26 nM,96 nM,8.19 nM,8.2 nM,47.3 nM,79 nM,5.5 nM,14 fold,6.1 nM
"CC(C)(O)C(O)CCN(c1cc2oc(-c3ccc(F)cc3)c(-c3ncc[nH]3)c2cc1C1CC1)S(C)(=O)=O (stereo not drawn) [Example 84, N-[5-cyclopropyl-2-(4-fluorophenyl)-3-(1H-imidazol-2-yl)-1-benzofuran-6-yl]-N-(3,4-dihydroxy-4-methylpentyl)methanesulfonamide]",103 nM,25.4 nM,184 nM,7 fold,14.9 nM,218 nM,14.9 nM,14.9 nM,142 nM,19 nM,146 nM,14.1 nM,14.1 nM,30.9 nM,41 nM,3.5 nM,12 fold,15.1 nM
"CNS(=O)(=O)CCCN(c1cc2oc(-c3ccc(F)cc3)c(-c3ncc[nH]3)c2cc1C1CC1)S(C)(=O)=O [Example 86, 3-{[5-cyclopropyl-2-(4-fluorophenyl)-3-(1H-imidazol-2-yl)-1-benzofuran-6-yl](methylsulfonyl)amino}-N-methylpropane-1-sulfonamide]",64.2 nM,2.8 nM,92.1 nM,33 fold,12.3 nM,86 nM,12.3 nM,12.3 nM,108 nM,18 nM,41 nM,6.7 nM,6.7 nM,137 nM,56 nM,5 nM,11 fold,11.5 nM
"CS(=O)(=O)CCN(c1cc2oc(-c3ccc(F)cc3)c(-c3ncc[nH]3)c2cc1C1CC1)S(C)(=O)=O [Example 87, N-[5-cyclopropyl-2-(4-fluorophenyl)-3-(1H-imidazol-2-yl)-1-benzofuran-6-yl]-N-[2-(methylsulfonyl)ethyl]methanesulfonamide]",64.5 nM,6.1 nM,155 nM,25 fold,7.6 nM,65 nM,7.6 nM,7.6 nM,48.4 nM,23 nM,57 nM,4.9 nM,4.9 nM,84.9 nM,156 nM,6 nM,26 fold,3.2 nM
"CS(=O)(=O)N(CCCCCO)c1cc2oc(-c3ccc(F)cc3)c(-c3ncc[nH]3)c2cc1C1CC1 [Example 88, N-[5-cyclopropyl-2-(4-fluorophenyl)-3-(1H-imidazol-2-yl)-1-benzofuran-6-yl]-N-(5-hydroxypentyl)methanesulfonamide]",25.3 nM,1.2 nM,38.2 nM,32 fold,4.1 nM,119 nM,4.1 nM,4.1 nM,33.9 nM,9 nM,108 nM,4.9 nM,4.9 nM,24.5 nM,46 nM,4 nM,12 fold,3.2 nM
